One data set concerns the target T1, NcNADase (Neurospora crassa, UniProt Q7S936).
T1 construct: gene NCU07948; secreted from transiently transfected 293 cells, codon-optimized, in pCMV-Flag5a (Flag tag), anti-FLAG purified, N-glycosylated
The data set is described as follows: HPLC cleavage assay. The format is biochemical. The conditions noted are these: 200 µM substrate, 50 mM Tris-HCl pH 8.0, 0.5 mM CaCl2, 150 mM NaCl, 20 °C (conditions described for AfNADase).

Data set [1] addresses T2, AfNADase (Aspergillus fumigatus, UniProt Q4WL81).
T2 construct: gene nadA; N-glycosylated at N45, N95, N118; about 30 kDa; homodimer; thumb 20-117, TNT palm domain 117-234; mutants also in 293 cells (C-terminal His6)
The data set can be described thus: X-ray structure, crystals soaked with NAD+. The settings on record: active site of molecule A, EGTA-treated protein, Ca2+ absent, formed from 10 mM NAD+ soak. The format is binding.

Data set [2] has as its system NC(=O)c1ccc[n+]([C@@H]2O[C@H](COP(=O)(O)OP(=O)(O)OC[C@H]3O[C@@H](n4cnc5c(N)ncnc54)[C@H](OP(=O)(O)O)[C@@H]3O)[C@@H](O)[C@H]2O)c1. The data set is described as follows: purified protein. The settings on record: 500 µM substrate, 0.2 nM enzyme, 25 mM sodium phosphate pH 5.8, 50 mM NaCl, 5 % D2O, 23 °C.
For data set [3], the system named is NC(=O)c1ccc[n+]([C@@H]2O[C@H](COP(=O)(O)OP(=O)(O)OC[C@H]3O[C@@H](n4cnc5c(N)ncnc54)[C@H](O)[C@@H]3O)[C@@H](O)[C@H]2O)c1. The data set is described as follows: purified protein. The conditions noted are these: 500 µM substrate, 0.2 nM enzyme, 25 mM sodium phosphate pH 5.8, 50 mM NaCl, 5 % D2O, 23 °C.
Data set [4] addresses T2, AfNADase. The data set is described as follows: X-ray co-crystal structure. The format is binding. The conditions noted are these: non-hydrolysable substrate analogue, active site of molecule B; 5 mM BAD co-crystallized, 0.1 M sodium acetate pH 5, CaCl2.
Data set [5] deals with the molecule itself. The data set is described as follows: SEC; purified recombinant AfNADase; conditions of the analysis not told in the text (Supplementary Fig. 2C-F). A general note: Size exclusion chromatography separates by hydrodynamic size, large species first.

T1 sequence (Q7S936 20-243): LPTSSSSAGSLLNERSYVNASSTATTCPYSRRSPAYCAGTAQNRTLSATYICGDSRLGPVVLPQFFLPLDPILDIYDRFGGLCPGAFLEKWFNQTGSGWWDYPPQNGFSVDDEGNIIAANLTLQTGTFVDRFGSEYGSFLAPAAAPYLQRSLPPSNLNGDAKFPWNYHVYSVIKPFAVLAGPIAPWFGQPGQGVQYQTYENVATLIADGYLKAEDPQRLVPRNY

On to `NC(=O)c1ccc[n+]([C@@H]2O[C@H](COP(=O)(O)OP(=O)(O)OC[C@H]3O[C@@H](n4cnc5c(N)ncnc54)[C@H](OP(=O)(O)O)[C@@H]3O)[C@@H](O)[C@H]2O)c1` [NADP^+], for which, at NcNADase, the HPLC cleavage assay result is “Both AfNADase and NcNADase cleaved NAD^+ and NADP^+”.
Turning to `NC(=O)c1cccnc1` [Nam], on AfNADase [1] (bound together with ADP-ribose), the “X-ray structure, crystals soaked with NAD+” value was “the reaction products, Nam and ADPR, were bound to a putative active site”.
As to AfNADase (Aspergillus fumigatus Af293), the Michaelis constant (Km) in data set [2] was found to be 106 ± 27.1 µM; in data set [3], 119.7 ± 40.8 µM.
As for `Nc1ncnc2c1ncn2[C@@H]1O[C@H](COP(=O)(O)OP(=O)(O)OC[C@H]2OC(O)[C@H](O)[C@@H]2O)[C@@H](O)[C@H]1O` (some centres unmarked) [ADPR], the “X-ray structure, crystals soaked with NAD+” value at AfNADase [1] (bound together with nicotinamide) is “the reaction products, Nam and ADPR, were bound to a putative active site”.
Consider `NC(=O)c1ccc[n+]([C@@H]2O[C@H](COP(=O)(O)OP(=O)(O)OC[C@H]3O[C@@H](n4cnc5c(N)ncnc54)[C@H](O)[C@@H]3O)[C@@H](O)[C@H]2O)c1` [NAD^+], for which the HPLC cleavage assay entry at NcNADase is “Both AfNADase and NcNADase cleaved NAD^+ and NADP^+”.
As for `NC(=O)c1cccc([C@@H]2O[C@H](COP(=O)(O)OP(=O)(O)OC[C@H]3O[C@@H](n4cnc5c(N)ncnc54)[C@H](O)[C@@H]3O)[C@@H](O)[C@H]2O)c1` [BAD], the X-ray co-crystal structure result at AfNADase [4] is “We were able to co-crystallize AfNADase with BAD bound to the active site”.

B1: Aspergillus fumigatus NADase (AfNADase), recombinant, from Sf9 insect cells (enzyme)
chain: LQHTEDSLFPARCWPDPCAGITFQNDTYVCGDPRLGPVVLPQKFPLNNELRTYARFGALCPAEFLDKWATDVAPNGTYIYPPANGFALDTEEQPILGNATLPVGMKLDRFGSEYGTFLAPLGAPYIERSLPPSNLNTFDGMYPYNYHVYQVTKEFVVGLGPIAPWFEQPGMGTQFVTYTNVLGLIDDGYLRRLDESEYDEKVEYSNPYTPGPNQ
modifications: N-linked glycosylation at N45, N95 and N118; disulfide bridges C33-80 and C38-50
notes: also called A. fumigatus NADase; gene product AFUA_6G14470
With B1, the “stoichiometry N” value in data set [5] was determined as 2.

The Km is the substrate concentration at which the rate is half of its maximum. Broadly, the stoichiometry N is a count of units in the complex or per binding partner.

(Values after paper PMC7955114, “Discovery of fungal surface NADases predominantly present in pathogenic species” (Nature Communications, 2021).)
